The source of these data is publication PMC11284788, “NN1213 – A Potent, Long-Acting, and Selective Analog of Human Amylin” (Journal of Medicinal Chemistry, 2024).

pEC50: −log10 of the molar value. Where two headings read alike, the source gives them in different places. Numbered stars: 1 amine (or outer) side, 2 acyl side, 3 side chain; on linkers, the order of the positions; unused ones are H or OH. Bridge positions count the residues as written; N and C are the ends. Peptide text beside a SMILES is read from it. * marks the point of attachment. C20 diacid = O=C(O)CCCCCCCCCCCCCCCCCCC(=O)*; γGlu = O=C(O)[C@H](CCC(=O)[*:2])N[*:1]

For assay [1], the target named is T1, hCTR (Homo sapiens, UniProt P30988).
T1 sequence (P30988 25-474): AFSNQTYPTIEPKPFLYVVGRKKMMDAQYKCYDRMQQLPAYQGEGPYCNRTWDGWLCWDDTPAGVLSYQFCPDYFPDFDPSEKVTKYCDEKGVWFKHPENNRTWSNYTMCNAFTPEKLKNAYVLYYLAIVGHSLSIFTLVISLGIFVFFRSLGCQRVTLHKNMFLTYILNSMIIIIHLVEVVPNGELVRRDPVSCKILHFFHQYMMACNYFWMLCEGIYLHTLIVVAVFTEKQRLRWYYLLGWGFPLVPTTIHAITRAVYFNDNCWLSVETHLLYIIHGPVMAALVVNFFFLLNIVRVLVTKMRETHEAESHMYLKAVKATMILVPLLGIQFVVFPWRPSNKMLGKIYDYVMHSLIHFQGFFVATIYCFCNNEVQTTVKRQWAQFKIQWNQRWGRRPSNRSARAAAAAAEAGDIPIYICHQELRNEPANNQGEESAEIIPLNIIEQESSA
Briefly: cAMP-responsive element luciferase reporter assay, human CTR. To be noted: luciferase (human receptor assay). It is filed as cell-based.

The target of another assay is T2, rCTR (Rattus norvegicus, UniProt P32214).
T2 construct: expressed in transfected cells; host or cells: BHK tk-ts 13, transient (FuGENE 6)
T2 sequence (P32214 25-479 isoform P32214-2 limits assumed): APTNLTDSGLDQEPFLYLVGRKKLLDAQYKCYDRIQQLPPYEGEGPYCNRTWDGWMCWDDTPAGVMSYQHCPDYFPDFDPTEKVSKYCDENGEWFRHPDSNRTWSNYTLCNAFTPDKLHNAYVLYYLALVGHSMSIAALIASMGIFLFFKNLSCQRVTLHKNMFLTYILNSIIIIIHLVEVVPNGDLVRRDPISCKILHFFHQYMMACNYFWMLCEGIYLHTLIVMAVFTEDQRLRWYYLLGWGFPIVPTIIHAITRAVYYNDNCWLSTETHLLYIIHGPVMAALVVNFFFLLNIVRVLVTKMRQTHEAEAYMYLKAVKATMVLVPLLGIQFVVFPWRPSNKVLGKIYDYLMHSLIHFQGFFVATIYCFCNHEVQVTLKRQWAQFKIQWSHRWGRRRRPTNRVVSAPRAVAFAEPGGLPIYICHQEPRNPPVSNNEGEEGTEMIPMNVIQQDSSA
The assay is described as follows: scintillation proximity binding assay, rCTR membranes. To be noted: SPA binding assay, Tables S13 and S15. On the procedure: (§1) The apparent binding affinities were determined using a scintillation proximity assay with beads from PerkinElmer and cell membranes containing the AMY3R or CTRs. […] Membranes were harvested and membranes were prepared and kept at −80 °C until use. The assay was performed in a 384-well Optiplate (PerkinElmer). Membranes were mixed with scintillation proximity assay beads in a 1:1 ratio. […] Samples were analyzed on a TopCounter (Packard). The IC50 values were calculated using GraphPad Prism. See Supporting Information S7: SAR Screening Assay Methods (Binding Assays (Human and Rat)) for more information.
(§2) Binding Assays (Human and Rat). Brief descriptions of the methods used to determine binding affinities for SAR analysis are described below. Curves and IC50 values were plotted and calculated in GraphPad Prism using nonlinear regression (one site binding competition analysis), with pIC50 values […]
(§3) values were used to calculate the binding affinity ratios in order to express the selectivity of compounds for the AMY3R versus the CTR.
(§4) CTR Binding Assay. The binding assay was performed using scintillation proximity assay (SPA) beads (RPNQ0001) from PerkinElmer and cell membranes containing either the hCTR or rCTR. BHK […]
(§5) Membranes were prepared in the following way: the cells were rinsed with PBS and incubated with Versene for approximately 5 min before harvesting. The cells were flushed with PBS and the cell-suspension was centrifuged for 5 min at 1000 rpm. Cells were homogenized (Ultra Turrax) in a buffer […]
(§6) containing 20 mM Na-HEPES and 0.1 mM EDTA (pH 7.4, buffer 2). The resulting pellet was re-suspended in buffer 2 and protein concentration was measured (BCA protein assay, Pierce). The homogenate was kept cold during the whole procedure. The membranes were stored at –80 °C until […]
(§7) The binding assay was performed in a 384-well Optiplate (PerkinElmer) in a total volume of 40 μL.
(§8) Membranes were mixed with SPA beads in a 1:1 ratio. […]
(§9) mg/well. Test compounds were dissolved in DMSO and further diluted in assay buffer (50 mM HEPES, pH 7.4, 1 mM CaCl2, 5 mM MgCl2, 0.1% ovalbumin, and 0.02% Tween-20).
(§10) Calcitonin (NEX422 PerkinElmer) was dissolved in assay buffer and added to the Optiplate at a final […]
(§11) prior to centrifugation (1500 rpm, 10 min). Samples were analyzed on TopCounter (Packard).

The target of assay [2] is T1, hCTR. The assay is described as follows: scintillation proximity binding assay, hCTR membranes. Also noted: expressed in transfected cells; host or cells: BHK tk-ts 13, transient (FuGENE 6); membranes for the SPA, whole cells for the species-specific assays. Particulars: SPA binding assay, Tables S13 and S15. How it is done:
as §1, §2, §3, §4, §5, §6, §7, §8, §9, §10, §11

On to `CC[C@H](C)[C@H](NC(=O)[C@H](C)NC(=O)CNC(=O)[C@H](Cc1ccccc1)NC(=O)[C@H](CC(N)=O)NC(=O)[C@@H]1CCCN1C(=O)[C@H](CO)NC(=O)[C@H](CO)NC(=O)[C@H](Cc1c[nH]cn1)NC(=O)[C@H](CCCNC(=N)N)NC(=O)[C@H](CC(C)C)NC(=O)[C@H](Cc1ccccc1)NC(=O)[C@H](CC(N)=O)NC(=O)[C@H](C)NC(=O)[C@H](CC(C)C)NC(=O)[C@H](CCCNC(=N)N)NC(=O)[C@H](CCC(N)=O)NC(=O)[C@@H](NC(=O)[C@H](C)NC(=O)[C@@H]1CSSC[C@H](NC(=O)[C@H](CCCNC(=N)N)NC(=O)CNC(=O)CC[C@H](NC(=O)CCCCCCCCCCCCCCCCCCC(=O)O)C(=O)O)C(=O)N[C@@H](CC(N)=O)C(=O)N[C@@H]([C@@H](C)O)C(=O)N[C@@H](C)C(=O)N[C@@H]([C@@H](C)O)C(=O)N1)[C@@H](C)O)C(=O)N1CCC[C@H]1C(=O)N[C@@H](CO)C(=O)N[C@@H](CO)C(=O)N[C@H](C(=O)N[C@@H](CC(N)=O)C(=O)N[C@H](C(=O)NCC(=O)N[C@@H](CO)C(=O)N[C@@H](Cc1c[nH]cn1)C(=O)N[C@H](C(=O)N[C@@H](Cc1ccc(O)cc1)C(N)=O)[C@@H](C)O)C(C)C)[C@@H](C)O` [Peptide 19] ({C20 diacid-γGlu}-GRCNTATCATQRLANFLRHSSPNFGAIPSSTNVGSHTY-NH2; disulfide 3-8), for which, on hCTR [1] (Tables S12 and S14), the “hCTR pEC50” value came to 8.88. At rCTR, the “rCTR pIC50” value was determined as 7.77. On hCTR [2], the “hCTR pIC50” value was found to be 7.81.

On to `CC[C@H](C)[C@H](NC(=O)[C@H](C)NC(=O)CNC(=O)[C@H](Cc1ccccc1)NC(=O)[C@H](CC(N)=O)NC(=O)[C@@H]1CCCN1C(=O)[C@H](CO)NC(=O)[C@H](CO)NC(=O)[C@H](Cc1c[nH]cn1)NC(=O)[C@H](CCCNC(=N)N)NC(=O)[C@H](CC(C)C)NC(=O)[C@H](Cc1ccccc1)NC(=O)[C@H](CCC(=O)O)NC(=O)[C@H](C)NC(=O)[C@H](CC(C)C)NC(=O)[C@H](CCCNC(=N)N)NC(=O)[C@H](CCC(N)=O)NC(=O)[C@@H](NC(=O)[C@H](C)NC(=O)[C@@H]1CSSC[C@H](NC(=O)[C@H](CCCCN)NC(=O)CC[C@H](NC(=O)CCCCCCCCCCCCCCCCCCC(=O)O)C(=O)O)C(=O)N[C@@H](CC(N)=O)C(=O)N[C@@H]([C@@H](C)O)C(=O)N[C@@H](C)C(=O)N[C@@H]([C@@H](C)O)C(=O)N1)[C@@H](C)O)C(=O)N1CCC[C@H]1C(=O)N[C@@H](CO)C(=O)N[C@@H](CO)C(=O)N[C@H](C(=O)N[C@@H](CC(N)=O)C(=O)N[C@H](C(=O)NCC(=O)N1CCC[C@H]1C(=O)N[C@@H](CC(N)=O)C(=O)N[C@H](C(=O)N[C@@H](Cc1ccc(O)cc1)C(N)=O)[C@@H](C)O)C(C)C)[C@@H](C)O` [Peptide 12] ({C20 diacid-γGlu}-KCNTATCATQRLAEFLRHSSPNFGAIPSSTNVGPNTY-NH2; disulfide 2-7), for which the EC50 on hCTR [1] (Tables S12 and S14, read-out: hCTR pEC50 (converted)) is 316 pM. In addition, the pEC50 at hCTR [1] (BHK cells stably expressing hCTR and CRE-luciferase, 3 h, 37 °C, 10% FBS, read-out: hCTR EC50) is 9.50. Further, the “rCTR pIC50” value on rCTR is 8.22. Also, the “hCTR pIC50” value on hCTR [2] amounted to 8.96.
